This is an account of results in patent US4714619A, “Aminomalonyl alanine compounds as dietary sweeteners” (priority 1986, dated 1987).

Where a name gives a salt, the structure may show the parent alone. Read-outs that look alike come from different tables or passages of the source.

Experiment [1] in a line: Comparative taste test, D- versus L-configuration (Table 2, FIG. 3). The arrangement: Sweet? (average score) / Bitter? (average score) / Salty? (average score) / Off Taste? (average score) / After Taste? (average score): scale not given here. How it is done:
The compounds were dissolved in distilled water at the concentrations specified in Table 2. Solutions were made up and kept overnight in a refrigerator. The following day, they were poured into individual graduated plastic cups (10 ml per cup) and allowed to warm to room temperature. A taste panel was convened and testing begun that same day. Tasting and evaluation was done by the standard protocol developed by Dr. Robert Gesteland of Taste and Smell Consulting Group, Inc.
The first solution tasted (reference standard for the panel) was 0.25M sucrose. Other solutions were tasted in radomized fashion. The random order was arrived at as follows:
i. An ordered list of the compounds and concentrations was prepared (26 solutions in all).
ii. 0.25M sucrose was designated as 1.
iii. A standard table of random numbers was used in which the numbers were grouped as two-digit numbers. A point in the table was chosen at random (blind pointing). The first solution in the list was given the first random number in the sequence (read right-to-left, up-to-down) which is between 2 and 26. The second solution in the list was given the next random number in the sequence between 2 and 26, etc. Repeat numbers were ignored.
iv. Solutions were then labeled A (for number 1) B (for random number 2), C-Z.
v. Panelists were instructed to taste the solutions in alphabetical order.
With the assistance of Taste and Smell Consulting Group, Inc., taste panel members were trained adn tested for their ability to discriminate sucrose solutions of varying concentrations. In summary it may be stated that all 9 panel members had acceptble correlation scores. Their results were in good agreement with those which have been previously reported in siilar types of studies. For the test series the correlations for each panelist for sucrose and aspartame were acceptable as were the overall results obtained by averaging individual scores. The results of the taste panel are set forth in Table 2 wherein the parenthetical figures represent the standard error values for the number above.

Experiment [2] can be described thus: Taste panel (Table 1, FIG. 2). The note with it: normalized to 100.

Take `C[C@@H](NC(=O)C(N)C(=O)O)C(=O)OC12CC3CC(CC(C3)C1)C2` (mixture of isomers) [(22), DL-Aminomalonyl-D-alanine 1-Adamantyl Ester Citrate]: the “sweet taste (words)” value in experiment [1] is given as “sweet”.
With `CC(NC(=O)C(N)C(=O)O)C(=O)OC1CCCCC1C` (mixture of isomers) [(23), DL-Aminomalonyl-D-alanine trans-2-Methylcyclohexyl Ester Citrate], in experiment [1], the “sweet taste (words)” value is given as “sweet”.
On to `CC(C)OC(=O)[C@H](C)NC(=O)C(N)C(=O)O` (mixture of isomers) [Compound (20), DL-Aminomalonyl-L-alanine Isopropyl Ester], for which, in experiment [1], the “sweet taste (words)” value is given as “not sweet”. For the same compound, in experiment [1] (0.0431 Millimolar), the “After Taste? (average score)” value is recorded as 0, the “Bitter? (average score)” value is 9, the “Off Taste? (average score)” value is reported as 5 and the “Pleasant? (average score)” value is 14. Besides, in experiment [1] (0.0431 Millimolar), the “Salty? (average score)” value is recorded as 3 and the “Sweet? (average score)” value is 3. Further, in experiment [1] (0.4307 Millimolar), the “After Taste? (average score)” value is listed as 8, the “Bitter? (average score)” value was determined as 14, the “Off Taste? (average score)” value worked out at 8 and the “Pleasant? (average score)” value was found to be 5. For the same compound, in experiment [1] (0.4307 Millimolar), the “Salty? (average score)” value is recorded as 16 and the “Sweet? (average score)” value was 8. Also, in experiment [1] (4.3066 Millimolar), the “After Taste? (average score)” value turned out to be 5, the “Bitter? (average score)” value came out at 0, the “Off Taste? (average score)” value was 5 and the “Pleasant? (average score)” value is on record as 19. Further, in experiment [1] (4.3066 Millimolar), the “Salty? (average score)” value was 0 and the “Sweet? (average score)” value came to 5. Moreover, the “sweet taste (words)” value in experiment [1] (listed as 20) is recorded as “non-sweet”.
As to `C[C@@H](NC(=O)C(N)C(=O)O)C(=O)OC1C2(C)CCC(C2)C1(C)C` (mixture of isomers) [Compound (21), DL-Aminomalonyl-D-alanine Fenchyl Ester], the “sweet taste (words)” value in experiment [1] is reported as “sweet”. Moreover, in experiment [1] (0.0306 Millimolar), the “After Taste? (average score)” value was 12, the “Bitter? (average score)” value was determined as 3, the “Off Taste? (average score)” value is listed as 13 and the “Pleasant? (average score)” value is -9. In addition, in experiment [1] (0.0306 Millimolar), the “Salty? (average score)” value was 4 and the “Sweet? (average score)” value is on record as 1. Further, in experiment [1] (0.3064 Millimolar), the “After Taste? (average score)” value is 50, the “Bitter? (average score)” value was 29, the “Off Taste? (average score)” value worked out at 56 and the “Pleasant? (average score)” value was -57. Also, in experiment [1] (0.3064 Millimolar), the “Salty? (average score)” value is given as 9 and the “Sweet? (average score)” value is reported as 8. For the same compound, in experiment [1] (3.0637 Millimolar), the “After Taste? (average score)” value is listed as 79, the “Bitter? (average score)” value is recorded as 90, the “Off Taste? (average score)” value was 99 and the “Pleasant? (average score)” value is on record as -83. In experiment [1] (3.0637 Millimolar), the “Salty? (average score)” value is reported as 62 and the “Sweet? (average score)” value is listed as 13.
Regarding `OC[C@H]1O[C@@](CO)(O[C@H]2O[C@H](CO)[C@@H](O)[C@H](O)[C@H]2O)[C@@H](O)[C@@H]1O` [Sucrose], the “After Taste? (average score)” value is on record as 0 in experiment [2] (62.0000 Millimolar); 5 in experiment [2] (125.0000 Millimolar); 0 in experiment [2] (250.0000 Millimolar); 7 in experiment [2] (500.0000 Millimolar); 30 in experiment [2] (1000.0000 Millimolar); 10 in experiment [1] (62.0000 Millimolar). The “After Taste? (average score)” value in experiment [1] (125.0000 Millimolar) was 4; in experiment [1] (250.0000 Millimolar), 15; in experiment [1] (500.0000 Millimolar), 9; in experiment [1] (1000.0000 Millimolar), 8. The “Bitter? (average score)” value was 3 in experiment [2] (62.0000 Millimolar); 2 in experiment [2] (125.0000 Millimolar); 0 in experiment [2] (250.0000 Millimolar); 6 in experiment [2] (500.0000 Millimolar); 0 in experiment [2] (1000.0000 Millimolar); 6 in experiment [1] (62.0000 Millimolar). The “Bitter? (average score)” value came out at 2 in experiment [1] (125.0000 Millimolar), 3 in experiment [1] (250.0000 Millimolar), 0 in experiment [1] (500.0000 Millimolar) and 0 in experiment [1] (1000.0000 Millimolar). Besides, the “Off Taste? (average score)” value in experiment [2] (62.0000 Millimolar) is recorded as 4; in experiment [2] (125.0000 Millimolar), 4; in experiment [2] (250.0000 Millimolar), 0; in experiment [2] (500.0000 Millimolar) it was 5; in experiment [2] (1000.0000 Millimolar), 0; in experiment [1] (62.0000 Millimolar), 9. In addition, the “Off Taste? (average score)” value in experiment [1] (125.0000 Millimolar) is 3; in experiment [1] (250.0000 Millimolar), 12; in experiment [1] (500.0000 Millimolar), 10; in experiment [1] (1000.0000 Millimolar) it was 12. Besides, the “Pleasant? (average score)” value is listed as -4 in experiment [2] (62.0000 Millimolar); 18 in experiment [2] (125.0000 Millimolar); 49 in experiment [2] (250.0000 Millimolar); 32 in experiment [2] (500.0000 Millimolar); 26 in experiment [2] (1000.0000 Millimolar); 17 in experiment [1] (62.0000 Millimolar). Also, the “Pleasant? (average score)” value is 21 in experiment [1] (125.0000 Millimolar), 34 in experiment [1] (250.0000 Millimolar), 35 in experiment [1] (500.0000 Millimolar) and 28 in experiment [1] (1000.0000 Millimolar). The “Salty? (average score)” value is 0 in experiment [2] (62.0000 Millimolar); 8 in experiment [2] (125.0000 Millimolar); 12 in experiment [2] (500.0000 Millimolar); 1 in experiment [2] (1000.0000 Millimolar); 9 in experiment [1] (62.0000 Millimolar); 1 in experiment [1] (125.0000 Millimolar). Moreover, the “Salty? (average score)” value in experiment [1] (250.0000 Millimolar) stood at 7; in experiment [1] (500.0000 Millimolar), 0; in experiment [1] (1000.0000 Millimolar), 0. The “Sweet? (average score)” value in experiment [2] (62.0000 Millimolar) is reported as 13; in experiment [2] (125.0000 Millimolar), 30; in experiment [2] (250.0000 Millimolar), 64; in experiment [2] (500.0000 Millimolar) it was 75; in experiment [2] (1000.0000 Millimolar) it was 97; in experiment [1] (62.0000 Millimolar), 3. Further, the “Sweet? (average score)” value is reported as 30 in experiment [1] (125.0000 Millimolar), 52 in experiment [1] (250.0000 Millimolar), 78 in experiment [1] (500.0000 Millimolar) and 95 in experiment [1] (1000.0000 Millimolar).
